According to patent US8143393B2, “Substituted 4-amino-pyrrolotriazine derivatives useful for treating hyper-proliferative disorders and diseases associated with angiogenesis” (Bayer HealthCare LLC, priority 2005, dated 2012):

Target: T1, FGFR-1 (Homo sapiens, UniProt P11362)
T1 construct: GST; made in house
Test: FGFR-1 TR-FRET biochemical assay
Details: 0.6 uM ATP, 5 nM FGFR1-GST; bounds given in nM
Summary of the method: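 In this LANCE time-resolved FRET format, compounds at final 10 μM–0.128 nM (1% DMSO, 1:5 series) were preincubated before enzyme start. Reactions ran for one hour at room temperature with 0.6 uM ATP, 25 nM biotinylated poly GT and 5 nM GST-tagged FGFR1. Inhibition was calculated from the 665/615 nm ratio minus the ATP-free background.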

T1 sequence (P11362 22-822): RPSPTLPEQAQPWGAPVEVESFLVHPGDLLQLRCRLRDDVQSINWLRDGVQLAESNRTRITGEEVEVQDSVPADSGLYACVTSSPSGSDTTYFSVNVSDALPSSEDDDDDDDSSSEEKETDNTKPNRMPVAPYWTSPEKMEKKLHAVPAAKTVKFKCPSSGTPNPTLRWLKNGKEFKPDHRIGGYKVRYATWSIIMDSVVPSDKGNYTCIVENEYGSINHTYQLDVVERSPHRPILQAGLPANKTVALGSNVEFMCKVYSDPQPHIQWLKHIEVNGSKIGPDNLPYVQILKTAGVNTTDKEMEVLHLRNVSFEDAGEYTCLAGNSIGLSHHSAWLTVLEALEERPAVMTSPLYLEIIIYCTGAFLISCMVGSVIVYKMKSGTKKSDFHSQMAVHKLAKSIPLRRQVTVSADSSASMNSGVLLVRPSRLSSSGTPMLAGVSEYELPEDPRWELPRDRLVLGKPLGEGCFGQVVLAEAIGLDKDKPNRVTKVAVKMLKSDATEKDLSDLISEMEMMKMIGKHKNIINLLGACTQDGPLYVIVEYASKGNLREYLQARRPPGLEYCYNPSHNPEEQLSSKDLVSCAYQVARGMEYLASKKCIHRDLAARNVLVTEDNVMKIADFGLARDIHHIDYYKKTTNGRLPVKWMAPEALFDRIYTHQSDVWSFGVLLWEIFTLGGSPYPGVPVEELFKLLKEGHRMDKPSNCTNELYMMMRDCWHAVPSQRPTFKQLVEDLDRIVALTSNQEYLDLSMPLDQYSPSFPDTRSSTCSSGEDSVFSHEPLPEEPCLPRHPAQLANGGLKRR

| IC50 | Structure (SMILES) |
| --- | --- |
| < 10 nM | Nc1ncnn2c(CN3CCCOCC3)cc(-c3ccc(NC(=O)Nc4cc(C(F)(F)F)ccc4F)cc3)c12 [Example 167, N-{4-[4-amino-7-(1,4-oxazepan-4-ylmethyl)pyrrolo[2,1-f][1,2,4]triazin-5-yl]phenyl}-N′-[2-fluoro-5-(trifluoromethyl)phenyl]urea] |
| < 10 nM | Nc1ncnn2c(CN3CCCOCC3)cc(-c3cc(F)c(NC(=O)Nc4cc(C(F)(F)F)ccc4F)cc3F)c12 [Example 168, N-{4-[4-amino-7-(1,4-oxazepan-4-ylmethyl)pyrrolo[2,1-f][1,2,4]triazin-5-yl]-2,5-difluorophenyl}-N′-[2-fluoro-5-(trifluoromethyl)phenyl]urea] |
| < 10 nM | Nc1ncnn2c(C3CCN(C(=O)CO)CC3)cc(-c3ccc(NC(=O)Nc4cc(C(F)(F)F)ccc4F)c(Cl)c3)c12 [Example 173, N-{4-[4-amino-7-(1-glycoloylpiperidin-4-yl)pyrrolo[2,1-f][1,2,4]triazin-5-yl]-2-chlorophenyl}-N′-[2-fluoro-5-(trifluoromethyl)phenyl]urea] |
| < 10 nM | Nc1ncnn2c(CN3CCCOCC3)cc(-c3ccc(NC(=O)Nc4cc(C(F)(F)F)ccn4)cc3)c12 [Example 176, N-{4-[4-amino-7-(1,4-oxazepan-4-ylmethyl)pyrrolo[2,1-f][1,2,4]triazin-5-yl]phenyl}-N′-[4-(trifluoromethyl)pyridin-2-yl]urea] |
| < 10 nM | Nc1ncnn2c(CN3CCCOCC3)cc(-c3ccc(NC(=O)Nc4cc(C(F)(F)F)ccc4F)c(F)c3)c12 [Example 177, N-{4-[4-amino-7-(1,4-oxazepan-4-ylmethyl)pyrrolo[2,1-f][1,2,4]triazin-5-yl]-2-fluorophenyl}-N′-[2-fluoro-5-(trifluoromethyl)phenyl]urea] |
| < 10 nM | Nc1ncnn2c(CN3CCCOCC3)cc(-c3ccc(NC(=O)Nc4cc(C(F)(F)F)ccn4)c(F)c3)c12 [Example 179, N-{4-[4-amino-7-(1,4-oxazepan-4-ylmethyl)pyrrolo[2,1-f][1,2,4]triazin-5-yl]-2-fluorophenyl}-N′-[4-(trifluoromethyl)pyridin-2-yl]urea] |
| < 10 nM | Cc1cc(-c2cc(CN3CCCOCC3)n3ncnc(N)c23)ccc1NC(=O)Nc1cc(C(F)(F)F)ccn1 [Example 180, 1-{4-[4-amino-7-(1,4-oxazepan-4-ylmethyl)pyrrolo[2,1-f][1,2,4]triazin-5-yl]-2-methylphenyl}-3-[4-(trifluoromethyl)pyridin-2-yl]urea] |
| < 10 nM | Cc1cc(-c2cc(CN3CCCOCC3)n3ncnc(N)c23)ccc1NC(=O)Nc1cc(C(F)(F)F)ccc1F [Example 181, N-{4-[4-amino-7-(1,4-oxazepan-4-ylmethyl)pyrrolo[2,1-f][1,2,4]triazin-5-yl]-2-methylphenyl}-N′-[2-fluoro-5-(trifluoromethyl)phenyl]urea] |
| < 10 nM | COC[C@@H]1CCCN1CCCc1cc(-c2ccc(NC(=O)Nc3cc(C(F)(F)F)ccc3F)c(F)c2)c2c(N)ncnn12 [Example 184, N-[4-(4-amino-7-{3-[(2S)-2-(methoxymethyl)pyrrolidin-1-yl]propyl}pyrrolo[2,1-f][1,2,4]triazin-5-yl)-2-fluorophenyl]-N′-[2-fluoro-5-(trifluoromethyl)phenyl]urea] |
| < 10 nM | Nc1ncnn2c(CCCN3CCCC3)cc(-c3ccc(NC(=O)Nc4cc(C(F)(F)F)ccc4F)c(F)c3)c12 [Example 186, N-{4-[4-amino-7-(3-pyrrolidin-1-ylpropyl)pyrrolo[2,1-f][1,2,4]triazin-5-yl]-2-fluorophenyl}-N′-[2-fluoro-5-(trifluoromethyl)phenyl]urea] |
| < 10 nM | CN1CCN(CCCc2cc(-c3ccc(NC(=O)Nc4cc(C(F)(F)F)ccc4F)c(F)c3)c3c(N)ncnn23)CC1 [Example 187, N-(4-{4-amino-7-[3-(4-methylpiperazin-1-yl)propyl]pyrrolo[2,1-f][1,2,4]triazin-5-yl}-2-fluorophenyl)-N′-[2-fluoro-5-(trifluoromethyl)phenyl]urea] |
| < 10 nM | CC(=O)N1CCN(CCCc2cc(-c3ccc(NC(=O)Nc4cc(C(F)(F)F)ccc4F)c(F)c3)c3c(N)ncnn23)CC1 [Example 188, N-(4-{7-[3-(4-acetylpiperazin-1-yl)propyl]-4-aminopyrrolo[2,1-f][1,2,4]triazin-5-yl}-2-fluorophenyl)-N′-[2-fluoro-5-(trifluoromethyl)phenyl]urea] |
| < 10 nM | Nc1ncnn2c(CCCN3CCS(=O)(=O)CC3)cc(-c3ccc(NC(=O)Nc4cc(C(F)(F)F)ccc4F)c(F)c3)c12 [Example 189, N-(4-{4-amino-7-[3-(1,1-dioxidothiomorpholin-4-yl)propyl]pyrrolo[2,1-f][1,2,4]triazin-5-yl}-2-fluorophenyl)-N′-[2-fluoro-5-(trifluoromethyl)phenyl]urea] |
| < 10 nM | Nc1ncnn2c(CCCN3CCOCC3)cc(-c3cc(F)c(NC(=O)Nc4cc(C(F)(F)F)ccc4F)cc3F)c12 [Example 190, N-{4-[4-amino-7-(3-morpholin-4-ylpropyl)pyrrolo[2,1-f][1,2,4]triazin-5-yl]-2,5-difluorophenyl}-N′-[2-fluoro-5-(trifluoromethyl)phenyl]urea] |
| < 10 nM | Nc1ncnn2c(CCCN3CCOCC3)cc(-c3ccc(NC(=O)Nc4cc(C(F)(F)F)ccn4)c(F)c3)c12 [Example 191, N-{4-[4-amino-7-(3-morpholin-4-ylpropyl)pyrrolo[2,1-f][1,2,4]triazin-5-yl]-2-fluorophenyl}-N′-[4-(trifluoromethyl)pyridin-2-yl]urea] |
| < 10 nM | Nc1ncnn2c(CCCN3CCCOCC3)cc(-c3ccc(NC(=O)Nc4cc(C(F)(F)F)ccc4F)c(F)c3)c12 [Example 193, N-(4-{4-amino-7-[3-(1,4-oxazepan-4-yl)propyl]pyrrolo[2,1-f][1,2,4]triazin-5-yl}-2-fluorophenyl)-N′-[2-fluoro-5-(trifluoromethyl)phenyl]urea] |
| < 10 nM | CN(C)CCCc1cc(-c2ccc(NC(=O)Nc3cc(C(F)(F)F)ccc3F)c(F)c2)c2c(N)ncnn12 [Example 194, N-(4-{4-amino-7-[3-(dimethylamino)propyl]pyrrolo[2,1-f][1,2,4]triazin-5-yl}-2-fluorophenyl)-N′-[2-fluoro-5-(trifluoromethyl)phenyl]urea] |
| < 10 nM | Nc1ncnn2c(CCCN3CCNC(=O)C3)cc(-c3ccc(NC(=O)Nc4cc(C(F)(F)F)ccc4F)c(F)c3)c12 [Example 195, N-(4-{4-amino-7-[3-(3-oxopiperazin-1-yl)propyl]pyrrolo[2,1-f][1,2,4]triazin-5-yl}-2-fluorophenyl)-N′-[2-fluoro-5-(trifluoromethyl)phenyl]urea] |
| 10 to 100 nM | Nc1ncnn2c(CCCN3CCSCC3)cc(-c3ccc(NC(=O)Nc4cc(C(F)(F)F)ccc4F)c(F)c3)c12 [Example 196, N-{4-4-[4-amino-7-(3-thiomorpholin-4-ylpropyl)pyrrolo[2,1-f][1,2,4]triazin-5-yl]-2-fluorophenyl}-N′-[2-fluoro-5-(trifluoromethyl)phenyl]urea] |
| > 100 nM | CC(C)(C)OC(=O)N1CCC(c2cc(-c3ccc(NC(=O)Nc4cc(C(F)(F)F)ccc4F)c(F)c3)c3c(N)ncnn23)C1 (stereo not shown) [Example 198, tert-butyl 3-{4-amino-5-[3-fluoro-4-({[2-fluoro-5-(trifluoromethyl)phenyl]carbamoyl}amino)phenyl]pyrrolo[2,1-f][1,2,4]triazin-7-yl}pyrrolidine-1-carboxylate] |
| 10 to 100 nM | Nc1ncnn2c(C3CCNC3)cc(-c3ccc(NC(=O)Nc4cc(C(F)(F)F)ccc4F)c(F)c3)c12 (stereo not shown) [Example 200, N-[4-(4-amino-7-pyrrolidin-3-ylpyrrolo[2,1-f][1,2,4]triazin-5-yl)-2-fluorophenyl]-N′-[2-fluoro-5-(trifluoromethyl)phenyl]urea] |
| < 10 nM | CS(=O)(=O)N1CCC(c2cc(-c3ccc(NC(=O)Nc4cc(C(F)(F)F)ccc4F)c(F)c3)c3c(N)ncnn23)C1 (stereo not shown) [Example 201, N-(4-{4-amino-7-[1-(methylsulfonyl)pyrrolidin-3-yl]pyrrolo[2,1-f][1,2,4]triazin-5-yl}-2-fluorophenyl)-N′-[2-fluoro-5-(trifluoromethyl)phenyl]urea] |
| < 10 nM | CC(=O)N1CCC(c2cc(-c3ccc(NC(=O)Nc4cc(C(F)(F)F)ccc4F)c(F)c3)c3c(N)ncnn23)C1 (stereo not shown) [Example 202, N-{4-[7-(1-acetylpyrrolidin-3-yl)-4-aminopyrrolo[2,1-f][1,2,4]triazin-5-yl]-2-fluorophenyl}-N′-[2-fluoro-5-(trifluoromethyl)phenyl]urea] |
| < 10 nM | CN(C)C(=O)N1CCC(c2cc(-c3ccc(NC(=O)Nc4cc(C(F)(F)F)ccc4F)c(F)c3)c3c(N)ncnn23)C1 (stereo not shown) [Example 203, 3-{4-amino-5-[3-fluoro-4-({[2-fluoro-5-(trifluoromethyl)phenyl]carbamoyl}amino)phenyl]pyrrolo[2,1-f][1,2,4]triazin-7-yl}-N,N-dimethylpyrrolidine-1-carboxamide] |
| < 10 nM | Nc1ncnn2c(C3CCN(C(=O)CO)C3)cc(-c3ccc(NC(=O)Nc4cc(C(F)(F)F)ccc4F)c(F)c3)c12 (stereo not shown) [Example 204, N-{4-[4-amino-7-(1-glycoloylpyrrolidin-3-yl)pyrrolo[2,1-f][1,2,4]triazin-5-yl]-2-fluorophenyl}-N′-[2-fluoro-5-(trifluoromethyl)phenyl]urea] |
| < 10 nM | CC(=O)N1CCC(c2cc(-c3ccc(NC(=O)Nc4cc(C(F)(F)F)ccn4)c(F)c3)c3c(N)ncnn23)C1 (stereo not shown) [Example 205, N-{4-[7-(1-acetylpyrrolidin-3-yl)-4-aminopyrrolo[2,1-f][1,2,4]triazin-5-yl]-2-fluorophenyl}-N′-[4-(trifluoromethyl)pyridin-2-yl]urea] |
| < 10 nM | Nc1ncnn2c(C3CCNC3)cc(-c3ccc(NC(=O)Nc4cc(C(F)(F)F)ccc4F)cc3)c12 (stereo not shown) [Example 206, 1-[4-(4-amino-7-pyrrolidin-3-ylpyrrolo[2,1-f][1,2,4]triazin-5-yl)phenyl]-3-[2-fluoro-5-(trifluoromethyl)phenyl]urea] |

Same assay, conditions: upper bound of the bin 'greater than 100 nM but less than 1 μM' (lower bound in E1)

| IC50 | Structure (SMILES) |
| --- | --- |
| < 1000 nM | CC(C)(C)OC(=O)N1CCC(c2cc(-c3ccc(NC(=O)Nc4cc(C(F)(F)F)ccc4F)c(F)c3)c3c(N)ncnn23)C1 (stereo not shown) [Example 198, tert-butyl 3-{4-amino-5-[3-fluoro-4-({[2-fluoro-5-(trifluoromethyl)phenyl]carbamoyl}amino)phenyl]pyrrolo[2,1-f][1,2,4]triazin-7-yl}pyrrolidine-1-carboxylate] |
